Measured values reported in patent US20030089472A1, “Laccase activity enhancers for pulp bleaching” (priority 2001, published 2003).

Test system: laccase (NS51003, Novozymes A/S, Denmark)
Experiment: Delignification of a softwood Kraft pulp using a laccase-mediator system (change in Kappa number, TAPPI T236 cm-85)
Format: biochemical
Settings: for Kappa # (Mediator): pH 5.5
Protocol: Delignification of a Softwood Kraft Pulp Using a Laccase-Mediator System in the Presence of a Mediator
In the following example, a softwood Kraft pulp was delignified using a laccase-mediator system. The Kraft process is well known to those skilled in the art and is described, for example, by Swen A. Rydholm in “Pulping Process”, Interscience Publishers, New York, N.Y. (1965), p. 576.
A softwood Kraft pulp, Kappa number 31.0, was treated with a laccase (NS51003, Novozymes A/S, Denmark) under the following conditions:
The dried pulp was added to 80 ml of 50 mM phosphate, pH 5.5, and disintegrated in a blender. The pulp was then transferred to a 500 ml conical flask, and the blender was washed with 20 ml of the same buffer. The washed buffer and the pulp were combined. The mediator was added at 1-4% (w/w, based on the dry pulp) (Dosage) followed by the addition of the laccase. The pH of the pulp mixture was adjusted to 5.5 if needed. The flask was covered with an aluminum foil with holes punched through and incubated at 50° C. for 16 hrs on a rotary shaker at 200 rpm.
After the enzymatic treatment, the pulp mixture was filtered through a Buchner funnel and the pulp was washed with water. The pulp from the control experiment was treated at the same pH and temperature as described above in the absence of mediators.
The washed pulp was then treated with an alkaline solution under the following conditions:
The filtered pulp was repulped in the alkaline solution and incubated at 70° C. for 3 hrs. The pH of the pulp mixture should be between 11.7-12.00 during the entire treatment. After the treatment, the pulp mixture was filtered through a Buchner funnel, and the pulp was washed with water extensively, and then dried in a hood overnight.
The delignification of the pulp was measured as the change in Kappa number according to TAPPI method T236 cm−85. Briefly, a known mass of paper pulp (containing lignin) was reacted with an excess of potassium permanganate in acid solution for a specified period of time to oxidize the lignin. After the reaction, the residual permanganate was determined by titration. The Kappa number was defined as the volume (ml) of 0.1N potassium permanganate consumed by 1 g of moisture-free pulp in 0.5N sulfuric acid after a ten minute reaction time at 25° C. under conditions such that one-half of the permanganate remained unreacted. A linear relationship with the lignin content of the pulp and the measurement of the Kappa number had already been done on samples as low as 300 mg of pulp.

Structure (SMILES)	Δ Kappa #	Kappa # (Mediator)
C(=NCc1ccccc1)c1ccccc1 [N-Benzylidene-benzylamine]	−0.3	28.3
Oc1ccccc1 [Phenol]	−1.1	25.0
CN(C)C(=S)[S-].O.[Na+] [Sodium dimethyldithio carbonate hydrate]	−0.7	28.6
Cc1ccc2nc(-c3ccc(N=NNc4ccc(-c5nc6ccc(C)c(S(=O)(=O)[O-])c6s5)cc4)cc3)sc2c1S(=O)(=O)[O-].[Na+].[Na+] [Thiazol Yellow G]	−3.0	21.9
